Assay results taken from patent publication US9227971B2, “Pyrazolo[1,5-a]pyrimidine compounds as mTOR inhibitors” (Merck Sharp & Dohme Corp., priority 2010, dated 2016).
Read-outs that look alike come from different tables or passages of the source.

Columns and labels:
[1] = test system: phosphorylated AKT Ser473 (pAKT S473), mTORC2 activity, PC3 cells; experiment: mTOR target engagement assay, immunofluorescent cell-based, pAKT S473 readout (mTORC2 activity); settings: Homo sapiens
Procedure, shortened: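 After blocking, cells were stained overnight at 4 °C with anti-pAKT S473 antibody, then a fluorescent secondary; inhibition was read as reduced fluorescence intensity.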

[2] = test system: phosphorylated 4E-BP1 Thr37/46 (p4E-BP1 Thr37/46), mTORC1 activity, PC3 cells; experiment: mTOR target engagement assay, immunofluorescent cell-based, p4E-BP1 Thr37/46 readout (mTORC1 activity); settings: Homo sapiens, read-out: p4E-BP1 Thr37/46 IC50
Procedure, shortened: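 PTEN-mutant PC3 prostate cells were treated with serially diluted compound in 5% FBS F12 medium (0.25% DMSO) for ninety minutes at 37° C, glyoxal-fixed, then immunostained overnight at 4° C for p4E-BP1 Thr37/46 with an Alexa Fluor 488 secondary. IC50 came from four-parameter fits of fluorescence, DMSO-only wells defining 100%.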

[3] = PC-3, PC3 cells, compound treatment ninety minutes at 37° C.

Structure (SMILES): CC(=O)c1c([C@@H]2C[C@H]3CC[C@@H](C2)N3C(=O)c2nnc[nH]2)nc2c(-c3ccc(-n4ccc(C)n4)nc3)cnn2c1N [Compound 1.1.136, 1-(5-((1R,3s,5S)-8-(4H-1,2,4-triazole-3-carbonyl)-8-azabicyclo[3.2.1]octan-3-yl)-7-amino-3-(6-(3-methyl-1H-pyrazol-1-yl)pyridin-3-yl)pyrazolo[1,5-a]pyrimidin-6-yl)ethanone]
- IC50 [1, 3]: 0.001 to 0.1 µM
- IC50 [2, 3]: 0.1 to 1 µM

Structure (SMILES): COc1ccc(-c2ccc(-c3cnn4c(N)c(S(C)(=O)=O)c([C@@H]5C[C@H]6CC[C@@H](C5)N6C(=O)c5nnc[nH]5)nc34)cn2)cc1Cl [Compound 3.51, ((1R,3s,5S)-3-(7-amino-3-(6-(3-chloro-4-methoxyphenyl)pyridin-3-yl)-6-(methylsulfonyl)pyrazolo[1,5-a]pyrimidin-5-yl)-8-azabicyclo[3.2.1]octan-8-yl)(4H-1,2,4-triazol-3-yl)methanone]
- IC50 ([1]; PC-3, Table 3-1, PC3 cells): 0.001 to 0.1 µM
- IC50 ([2]; PC-3, Table 3-1, PC3 cells): 0.001 to 0.1 µM

Structure (SMILES): CS(=O)(=O)c1c([C@@H]2C[C@H]3CC[C@@H](C2)N3C(=O)c2nnc[nH]2)nc2c(-c3ccc(C4(O)CCC4)nc3)cnn2c1N [Compound 7.41, ((1R,3s,5S)-3-(7-amino-3-(6-(1-hydroxycyclobutyl)pyridin-3-yl)-6-(methylsulfonyl)pyrazolo [1,5-a]pyrimidin-5-yl)-8-azabicyclo[3.2.1]octan-8-yl)(4H-1,2,4-triazol-3-yl)methanone]
- IC50 ([1]; PC-3, Table 7-8, PC3 cells): 0.001 to 0.1 µM
- IC50 ([2]; PC-3, Table 7-8, PC3 cells): 0.001 to 0.1 µM

Structure (SMILES): CC(=O)c1c([C@]2(O)C[C@H]3CC[C@@H](C2)N3C(=O)c2nnc[nH]2)nc2c(-c3ccc(-c4ccccc4)nc3)cnn2c1N [Compound 8.21, 1-(7-amino-5-((1R,3r,5S)-3-hydroxy-8-(4H-1,2,4-triazole-3-carbonyl)-8-azabicyclo[3.2.1]octan-3-yl)-3-(6-phenylpyridin-3-yl)pyrazolo[1,5-a]pyrimidin-6-yl)ethanone]
- IC50 ([1]; PC-3, PC3 cells): 1 to 10 µM
- IC50 ([2]; PC-3, PC3 cells): 1 to 10 µM

Structure (SMILES): CS(=O)(=O)c1c([C@H]2CC3CC[C@H](C2)N3C(=O)c2nnc[nH]2)nc2c(-c3cnc4c(c3)CCCC4O)cnn2c1N (stereo partly drawn) [Compound 7.53, ((1R,3s,5S)-3-(7-amino-3-(8-hydroxy-5,6,7,8-tetrahydroquinolin-3-yl)-6-(methylsulfonyl)pyrazolo [1,5-a]pyrimidin-5-yl)-8-azabicyclo[3.2.1]octan-8-yl)(4H-1,2,4-triazol-3-yl)methanone]
- IC50 ([1]; PC-3, PC3 cells): 0.1 to 1 µM
- IC50 ([2]; PC-3, PC3 cells): 0.1 to 1 µM

Structure (SMILES): Nc1c(S(=O)(=O)C2CC2)c([C@@H]2C[C@H]3CC[C@@H](C2)N3C(=O)c2nnc[nH]2)nc2c(-c3ccc(-c4ccccc4)nc3)cnn12 [Compound 3.160, ((1R,3s,5S)-3-(7-amino-6-(cyclopropylsulfonyl)-3-(6-phenylpyridin-3-yl)pyrazolo[1,5-a]pyrimidin-5-yl)-8-azabicyclo[3.2.1]octan-8-yl)(4H-1,2,4-triazol-3-yl)methanone]
- IC50 ([1]; PC-3, Table 3-1, PC3 cells): 0.001 to 0.1 µM
- IC50 ([2]; PC-3, Table 3-1, PC3 cells): 0.1 to 1 µM

Structure (SMILES): COCCNc1nnc(C(=O)N2[C@@H]3CC[C@H]2C[C@H](c2nc4c(-c5ccc(-c6ccccc6)nc5)cnn4c(N)c2C2CC2)C3)[nH]1 [Compound 4.31, ((1R,3s,5S)-3-(7-amino-6-cyclopropyl-3-(6-phenylpyridin-3-yl)pyrazolo[1,5-a]pyrimidin-5-yl)-8-azabicyclo[3.2.1]octan-8-yl)(5-(2-methoxyethylamino)-4H-1,2,4-triazol-3-yl)methanone]
- IC50 [1, 3]: 1 to 10 µM
- IC50 [2, 3]: 1 to 10 µM

Structure (SMILES): CC(=O)c1c([C@@H]2C[C@H]3CC[C@@H](C2)N3C(=O)C2(O)CC2)nc2c(-c3ccc(-c4ccccc4)nc3)cnn2c1N [Compound 1.1.48, 1-(7-amino-5-((1R,3s,5S)-8-(1-hydroxycyclopropanecarbonyl)-8-azabicyclo[3.2.1]octan-3-yl)-3-(6-phenylpyridin-3-yl)pyrazolo[1,5-a]pyrimidin-6-yl)ethanone]
- IC50 [1, 3]: 0.1 to 1 µM
- IC50 [2, 3]: 0.1 to 1 µM

Structure (SMILES): CC(=O)c1c([C@@H]2C[C@H]3CC[C@@H](C2)N3C(=O)c2nnc[nH]2)nc2c(-c3ccc(-c4cc[nH]n4)nc3)cnn2c1N [Compound 1.1.74, 1-(3-(6-(1H-pyrazol-3-yl)pyridin-3-yl)-5-((1R,3s,5S)-8-(4H-1,2,4-triazole-3-carbonyl)-8-azabicyclo[3.2.1]octan-3-yl)-7-aminopyrazolo[1,5-a]pyrimidin-6-yl)ethanone]
- IC50 [1, 3]: 0.001 to 0.1 µM
- IC50 [2, 3]: 0.001 to 0.1 µM

Structure (SMILES): CC(=O)c1c([C@@H]2C[C@H]3CC[C@@H](C2)N3C(=O)CO)nc2c(-c3ccc(C(O)C(F)(F)F)nc3)cnn2c1N (stereo partly drawn) [Compound 7.67, 1-((1R,3s,5S)-3-(6-acetyl-7-amino-3-(6-(2,2,2-trifluoro-1-hydroxyethyl)pyridin-3-yl)pyrazolo[1,5-a]pyrimidin-5-yl)-8-azabicyclo[3.2.1]octan-8-yl)-2-hydroxyethanone]
- IC50 ([1]; PC-3, PC3 cells): 1 to 10 µM
- IC50 ([2]; PC-3, PC3 cells): 0.1 to 1 µM

Structure (SMILES): CC(=O)c1c([C@@H]2C[C@H]3CC[C@@H](C2)N3C(=O)CO)nc2c(-c3ccc(-c4ccn(CF)n4)nc3)cnn2c1N [Compound 1.1.87, 1-((1R,3s,5S)-3-(6-acetyl-7-amino-3-(6-(1-(fluoromethyl)-1H-pyrazol-3-yl)pyridin-3-yl)pyrazolo[1,5-a]pyrimidin-5-yl)-8-azabicyclo[3.2.1]octan-8-yl)-2-hydroxyethanone]
- IC50 [1, 3]: 0.001 to 0.1 µM
- IC50 [2, 3]: 0.001 to 0.1 µM

Structure (SMILES): [2H]C([2H])([2H])Oc1ccc(-c2ccc(-c3cnn4c(N)c(C(C)=O)c([C@@H]5C[C@H]6CC[C@@H](C5)N6C(=O)CO)nc34)cn2)cc1 [Compound 1.1.78, 1-((1R,3s,5S)-3-(6-acetyl-7-amino-3-(6-(4-methoxy-(D3)-phenyl)pyridin-3-yl)pyrazolo[1,5-a]pyrimidin-5-yl)-8-azabicyclo[3.2.1]octan-8-yl)-2-hydroxyethanone]
- IC50 [1, 3]: 0.001 to 0.1 µM
- IC50 [2, 3]: 0.001 to 0.1 µM

Structure (SMILES): CNC(=O)N1[C@@H]2CC[C@H]1C[C@H](c1nc3c(-c4ccc(-c5ncc[nH]5)nc4)cnn3c(N)c1C(C)=O)C2 [Compound 6.24, (1R,3s,5S)-3-(3-(6-(1H-imidazol-2-yl)pyridin-3-yl)-6-acetyl-7-aminopyrazolo[1,5-a]pyrimidin-5-yl)-N-methyl-8-azabicyclo[3.2.1]octane-8-carboxamide]
- IC50 ([1]; PC-3, Table 6-1, PC3 cells): 0.001 to 0.1 µM
- IC50 ([2]; PC-3, Table 6-1, PC3 cells): 0.001 to 0.1 µM

Structure (SMILES): CC(=O)Nc1nc(C(=O)N2[C@@H]3CC[C@H]2C[C@H](c2nc4c(-c5ccc(-c6ccccc6)nc5)cnn4c(N)c2C(C)=O)C3)n[nH]1 [Compound 1.1.142, N-(3-((1R,3s,5S)-3-(6-acetyl-7-amino-3-(6-phenylpyridin-3-yl)pyrazolo[1,5-a]pyrimidin-5-yl)-8-azabicyclo[3.2.1]octane-8-carbonyl)-1H-1,2,4-triazol-5-yl)acetamide]
- IC50 [1, 3]: 0.1 to 1 µM
- IC50 [2, 3]: 0.1 to 1 µM

Structure (SMILES): Nc1c(C2CC2)c([C@@H]2C[C@H]3CC[C@@H](C2)N3S(=O)(=O)c2nnc[nH]2)nc2c(-c3ccc(-c4ccccc4)nc3)cnn12 [Compound 4.3, 5-((1R,3a,5S)-8-(4H-1,2,4-triazol-3-ylsulfonyl)-8-azabicyclo[3.2.1]octan-3-yl)-6-cyclopropyl-3-(6-phenylpyridin-3-yl)pyrazolo[1,5-a]pyrimidin-7-amine]
- IC50 [1, 3]: 1 to 10 µM
- IC50 [2, 3]: 1 to 10 µM

Structure (SMILES): CC(=O)c1c([C@@H]2C[C@H]3CC[C@@H](C2)N3C(=O)c2nnc[nH]2)nc2c(-c3ccc([C@H](O)C(F)(F)F)nc3)cnn2c1N [Compound 7.74, 1-(5-((1R,3s,5S)-8-(4H-1,2,4-triazole-3-carbonyl)-8-azabicyclo[3.2.1]octan-3-yl)-7-amino-3-(6-((S)-2,2,2-trifluoro-1-hydroxyethyl)pyridin-3-yl)pyrazolo[1,5-a]pyrimidin-6-yl)ethanone]
- IC50 ([1]; PC-3, PC3 cells): 0.1 to 1 µM
- IC50 ([2]; PC-3, PC3 cells): 0.1 to 1 µM

Structure (SMILES): CS(=O)(=O)c1c([C@@H]2C[C@H]3CC[C@@H](C2)N3C(=O)c2cn[nH]c2)nc2c(-c3ccc(-c4ccccc4)nc3)cnn2c1N [Compound 3.83, ((1R,3s,5S)-3-(7-amino-6-(methylsulfonyl)-3-(6-phenylpyridin-3-yl)pyrazolo[1,5-a]pyrimidin-5-yl)-8-azabicyclo[3.2.1]octan-8-yl)(1H-pyrazol-4-yl)methanone]
- IC50 ([1]; PC-3, Table 3-1, PC3 cells): 0.001 to 0.1 µM
- IC50 ([2]; PC-3, Table 3-1, PC3 cells): 0.001 to 0.1 µM

Structure (SMILES): CCOc1ccc(-c2ccc(-c3cnn4c(N)c(C5CC5)c([C@@H]5C[C@H]6CC[C@@H](C5)N6C(=O)c5nnc[nH]5)nc34)cn2)cc1 [Compound 4.13, ((1R,3s,5S)-3-(7-amino-6-cyclopropyl-3-(6-(4-ethoxyphenyl)pyridin-3-yl)pyrazolo[1,5-a]pyrimidin-5-yl)-8-azabicyclo[3.2.1]octan-8-yl)(4H-1,2,4-triazol-3-yl)methanone]
- IC50 [1, 3]: 0.1 to 1 µM
- IC50 [2, 3]: 0.1 to 1 µM

Structure (SMILES): Nc1c(C2CC2)c([C@@H]2C[C@H]3CC[C@@H](C2)N3C(=O)CO)nc2c(-c3ccc(-c4ncc[nH]4)c(F)c3)cnn12 [Compound 6.37, 1-((1R,3s,5S)-3-(7-amino-6-cyclopropyl-3-(3-fluoro-4-(1H-imidazol-2-yl)phenyl)pyrazolo[1,5-a]pyrimidin-5-yl)-8-azabicyclo[3.2.1]octan-8-yl)-2-hydroxyethanone]
- IC50 ([1]; PC-3, Table 6-1, PC3 cells): 0.001 to 0.1 µM
- IC50 ([2]; PC-3, Table 6-1, PC3 cells): 0.001 to 0.1 µM
